The target of experiment [1] is T1, β-PDGFR (Homo sapiens, UniProt P09619). Kind of experiment: HR5 phosphorylation assay (CHO cells overexpressing human β-PDGFR). In kind it is cell-based. Particulars: 8 nM PDGF BB for 10 minutes, PDGF receptor phosphorylation. On the set-up: host or cells: CHO cells (HR5 line).
Procedure: The HR5 cell line is a cell line of CHO cells engineered to overexpress human β-PDGFR, which cell line is available from the ATCC. The expression level of β-PDGFR in HR5 cells is around 5×10^4 receptor per cell. For the phosphorylation assay according to the invention, HR5 cells were grown to confluency in 96-well microtiter plates under standard tissue culture conditions, followed by serum-starvation for 16 hours. Quiescent cells were incubated at 37° C. without or with increasing concentrations of the test compound (0.01-30 uM) for 30 minutes followed by the addition of 8 nM PDGF BB for 10 minutes. Cells were lysed in 100 mM Tris, pH7.5, 750 mM NaCl, 0.5% Triton X-100, 10 mM sodium pyrophosphate, 50 mM NaF, 10 ug/ml aprotinin, 10 ug/ml leupeptin, 1 mM phenylmethylsulfonyl fluoride, 1 mM sodium vanadate, and the lysate was cleared by centrifugation at 15,000×g for 5 minutes. Clarified lysates were transferred into a second microtiter plate in which the wells were previously coated with 500 ng/well of 1B5B11 anti-β-PDGFR mAb, and then incubated for two hours at room temperature. […] Wells were washed prior to adding ABTS (Sigma), and the rate of substrate formation was monitored at 650 nm.
Experiment [2] concerns the target T1, β-PDGFR. Kind of experiment: MG63 phosphorylation assay (endogenous β-PDGFR phosphorylation, PDGF-BB stimulation with human plasma). In kind it is cell-based. On the set-up: This assay is for measuring endogenous β-PDGFR phosphorylation in MG63 cells; endogenous in cells; host or cells: MG63 human osteosarcoma cells (ATCC). Particulars: MG63 human osteosarcoma cells; PDGF-BB stimulation in presence of 45% human plasma; PDGF receptor phosphorylation; read-out: MG63 w/human plasma IC50.
Procedure: For the phosphorylation assay according to the invention, HR5 cells were grown to confluency in 96-well microtiter plates under standard tissue culture conditions, followed by serum-starvation for 16 hours. Quiescent cells were incubated at 37° C. without or with increasing concentrations of the test compound (0.01-30 uM) for 30 minutes followed by the addition of 8 nM PDGF BB for 10 minutes. Cells were lysed in 100 mM Tris, pH7.5, 750 mM NaCl, 0.5% Triton X-100, 10 mM sodium pyrophosphate, 50 mM NaF, 10 ug/ml aprotinin, 10 ug/ml leupeptin, 1 mM phenylmethylsulfonyl fluoride, 1 mM sodium vanadate, and the lysate was cleared by centrifugation at 15,000×g for 5 minutes. Clarified lysates were transferred into a second microtiter plate in which the wells were previously coated with 500 ng/well of 1B5B11 anti-β-PDGFR mAb, and then incubated for two hours at room temperature. After washing three times with binding buffer (0.3% gelatin, 25 mM Hepes pH 7.5, 100 mM NaCl, 0.01% Tween-20), 250 ng/ml of rabbit polyclonal anti-phosphotyrosine antibody (Transduction Laboratory) was added and plates were incubated at 37° C. for 60 minutes. […] Wells were washed prior to adding ABTS (Sigma), and the rate of substrate formation was monitored at 650 nm. […]

T1 sequence (P09619 33-1106): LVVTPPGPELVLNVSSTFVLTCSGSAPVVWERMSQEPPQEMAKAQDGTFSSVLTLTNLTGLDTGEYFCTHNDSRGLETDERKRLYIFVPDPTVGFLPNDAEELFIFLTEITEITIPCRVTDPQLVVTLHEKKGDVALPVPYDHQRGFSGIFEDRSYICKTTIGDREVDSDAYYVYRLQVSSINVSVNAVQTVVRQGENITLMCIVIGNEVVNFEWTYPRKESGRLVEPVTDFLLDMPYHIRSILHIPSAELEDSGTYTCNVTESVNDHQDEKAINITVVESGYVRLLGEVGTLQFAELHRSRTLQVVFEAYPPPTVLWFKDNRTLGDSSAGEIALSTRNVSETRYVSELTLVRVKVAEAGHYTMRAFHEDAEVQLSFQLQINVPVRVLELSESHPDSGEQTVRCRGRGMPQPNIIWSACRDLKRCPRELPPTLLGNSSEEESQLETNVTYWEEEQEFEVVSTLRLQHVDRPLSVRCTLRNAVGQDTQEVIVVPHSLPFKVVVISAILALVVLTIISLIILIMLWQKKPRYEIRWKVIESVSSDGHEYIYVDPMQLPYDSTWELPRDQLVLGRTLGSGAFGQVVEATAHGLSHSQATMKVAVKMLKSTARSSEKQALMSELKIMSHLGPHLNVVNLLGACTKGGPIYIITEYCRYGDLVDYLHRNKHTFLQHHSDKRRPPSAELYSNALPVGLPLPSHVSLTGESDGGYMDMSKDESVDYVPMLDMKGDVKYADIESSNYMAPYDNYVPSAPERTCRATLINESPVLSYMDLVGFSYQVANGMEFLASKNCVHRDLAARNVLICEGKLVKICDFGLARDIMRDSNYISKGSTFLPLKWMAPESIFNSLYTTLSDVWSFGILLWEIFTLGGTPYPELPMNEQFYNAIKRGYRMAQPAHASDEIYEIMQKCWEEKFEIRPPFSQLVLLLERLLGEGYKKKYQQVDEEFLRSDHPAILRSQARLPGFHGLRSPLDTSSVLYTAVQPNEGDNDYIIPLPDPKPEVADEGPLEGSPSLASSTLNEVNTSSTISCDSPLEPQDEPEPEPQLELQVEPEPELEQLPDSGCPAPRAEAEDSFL

Take `c1nc(N2CCNCC2)c2ccc(OCCN3CCCCC3)cc2n1` [Example 1, 4-piperazinyl-7-(2-piperidylethoxy)quinazoline]: the IC50 came to 150 nM at β-PDGFR [1] and 103 nM at β-PDGFR [2].

The values above are taken from patent US6956039B2, “Nitrogenous heterocylic compounds” (Millennium Pharmaceuticals, Inc., priority 2000, dated 2005).
